The source of these data is patent US9505741B2, “Prolylhydroxylase inhibitors and methods of use” (CORNELL UNIVERSITY, priority 2010, dated 2016).

One data set has as its system HIF1α protein. As to the kind of experiment: HIF immunoblot in SH-SY5Y neuroblastoma cells. Format: cell-based, human. As to conditions: 5 μM, three hours. Here is the method: After three hours of 5 μM drug treatment, cells were scraped in ice cold PBS and centrifuged at 1,000×g per 5 min. The pellet was used for nuclear extract preparation with the NE-PER Nuclear and Cytoplasmic Extraction kit (Pierce). After SDS-PAGE followed by transfer to a nitrocellulose membrane, the latter was incubated overnight at 4° C. with primary polyclonal antibody against HIF-1α (Upstate) and monoclonal antibody against β-actin (Sigma) (dilution 1:250 and 1:5000, respectively, in Odyssey Blocking Buffer). Secondary fluorophore conjugated Odyssey IRDye-680 and IRD-800 antibodies (LI-COR Biosciences) were added at 1:20,000 in Odyssey Blocking Buffer, and incubated for one hour at room temperature. Immunoreactive proteins were detected using Odyssey IR imaging system (LI-COR Biosciences).
(Immunoblotting shows a protein as a band on a membrane.)

For data set [1], the system named is HIF ODD-luc reporter (HIF PHD-controlled stability). The experiment in a line: HTS with cell-based HIF ODD-luciferase reporter (SH-SY5Y-ODD-luc cells). More on the design: species or system human. As to conditions: three hours, SH-SY5Y-ODD-luc; for fold reporter activation over background: 10 μM; for activation at 10 µM: Homo sapiens, 3 h, read-out: reporter activation (%) relative to ciclopirox (100%) and DMSO (0%). The source says:
For HTS, a cell-based reporter system was employed. The cell-based reporter system was generated by fusing HIF-1a oxygen degradable domain (ODD) to luciferase (Safran M. et al., PNAS, 2006, 103, 105-110), which represents a cell-based capture assay monitored by the consumption of the luciferase-labeled HIF substrate under the conditions more physiological than in vitro test tubes. In accord with their structure activity relationship in reporter assay, the best “hits” stabilize HIF1, upregulate known HIF target genes in a human neuronal line, and exert neuroprotective effects in established model of oxidative stress in cortical neurons.
The reporter cell lines constitutively expressing ODD-luc (human neuroblastoma, SH-SY5Y) were stable for more than one year without significant change in their response to canonical PHD inhibitors such as DFO, dihydroxybenzoate (DHB), dimethyloxalylglycine (DMOG), and ciclopirox (FIG. 1B). In order to verify the specificity of luciferase changes as an assay for PHD activity, several control lines were developed: the control line expressing ODD-luc with proline 564 and 567 mutated to Ala generates luciferase fusion that cannot be degraded and experimentally identifies a ceiling level of ODD-luc protein attainable in these cells. The background signal for the wild-type HIF ODD-luc line (PYIP) corresponds to approximately 5-6% of the ODD-luc levels in the control line AYIA (double mutant P564A/P567A line) (FIG. 2). Treatment with 10 μM ciclopirox results in a 10-fold increase of a background signal for the wild-type ODD-luc reporter (PYIP line), i.e. reaches almost 50% of the threshold value (FIG. 2).
The assay was optimized for HTS format to provide Z values above 0.7. SH-SY5Y-ODD-luc cells were plated into 384—well white flat-bottom plates at 7,000 cell/well in 30 μl of serum and incubated overnight at 37° C., 5% CO2. The next day, compounds were added to a final concentration of 10 μM, plates were incubated for three hours at 37° C., and luciferase activity was measured using SteadyGlo™ reagent (Promega). Each plate had two internal standards, ciclopirox (100%), and DMSO (0%). The reporter activation (%) was calculated as a ratio (L−LDMSO)/(Lciclopirox−LDMSO). Hits were defined as those >25%. HTS of 85,000 compounds was performed at Rockefeller HTS Resource Center. 295 hits from the initial screen have been tested in quadruplicate, 160 were confirmed. Classification into 10 structural clusters has been done manually; 25 hits were singletons.

Data set [2] has the same test system. The experiment in a line: ODD-luc reporter, concentration titration and kinetics of reporter activation (extended SAR). Format: cell-based, human. Particulars: for pKi: linear plot 1/(K0−v) vs inhibitor concentration, read-out: apparent inhibition constant from time course of reporter activation. The source says:
The HIF ODD-luciferase reporter system is controlled by the rate of PHD catalyzed reaction, and from an enzyme kinetics point of view, it is a “capture assay” monitored by the consumption of a substrate, the heterologously expressed HIF ODDluciferase fusion protein. In the kinetic regime, i.e. monitoring the time-course of luminescence changes (FIG. 3A), the ODD-luc reporter system permits quantitative characterization of promoter capacity (Ko, rate of fusion protein generation), enzyme activity, and inhibition constant determination.
The rate of fusion accumulation equals the rate of its production (Ko) minus the rate of the rate-limiting step, controlled by HIF PHDs, which obeys Michaelis-Menten kinetics, as follows: v=d[ODDluc]/dt=K0−k1[PHD][ODDluc]/{Km(1+[I]/K1)+[ODDluc]} (Eq.1)
The background luminescence signal calibrated with recombinant luciferase allows an estimation of the steady-state concentration of the ODD-luc fusion protein. Under the conditions used the steady-state value of 60 rlu (relative light units) corresponds to 1 pg luciferase protein; dividing this number by the total cell volume taken as a single cell volume (233μ^3) multiplied by 30,000 cells/well density (number of cells in a 96 well dish), the ODD-luc fusion protein steady-state concentration is found to be equal to 2.3 nM, which is well below all reported Km values for HIF1 (Dao, J. H., et al., Anal Biochem 384, 213-223 2009; Hewitson, K. S., et al., Methods Enzymol 435, 25-42 2007; Koivunen, P., et al., J Biol Chem 281, 28712-28720 2006; Tuckerman, J. R., et al., FEBS Lett 576, 145-150 2004. Therefore, it is preferable to work under nonsaturating conditions with respect to HIF substrate, i.e. optimal conditions for selecting inhibitors competitive against HIF substrate. Moreover, as compared to the in vitro assay, which uses a 19 amino acid peptide fragment surrounding the oxygen dependent domain (ODD), the instant ODD-luciferase construct contains 123 amino acid acids, and thus, more closely emulates the behavior of native HIF. The initial concentration of fusion can be considered much lower than Km, and thus, can be ignored in the rate equation: v=d[ODDluc]/dt=K0−k1[PHD][ODDluc]/Km(1+[I]/K1) (Eq.2)
Knowing the capacity of the promoter, the inhibition constant can be determined, but not the inhibition type, from the initial rates of signal accumulation at varied fixed concentrations of potential inhibitor. The capacity of promoter, K0 can be determined under the conditions of total inhibition of PHD activity by means of complete iron deprivation achieved in the presence of high concentrations of ciclopirox, i.e. when the increase in the ciclopirox concentrations give no further increase in the rate of luciferase signal growth (FIG. 3B). […]

The nature of data set [3]: Iron binding by calcein displacement from its iron complex. The data set is classed as physicochemical. How it is done:
The iron chelation ability is determined by displacement of calcein from its complex with iron monitored by fluorescence (excitation 490 nm, emission 523 nm, cut-off 515 nm) on a Spectramax M5e platereader (Molecular Devices). The apparent binding constant for calcein (ca.50 nM) was determined from Fe titration curve for 1 μM calcein in 5 mM Tris-HCl buffer, pH 7.5. The ratio between the iron binding constant for calcein and a particular compound, i.e., KQ/KCa, was estimated by fitting the titration curve into the dependence of [Fe]o vs. Y, where Y═[Ca—Fe]/[Ca] is a ratio of calcein-bound Fe to free (fluorescent) calcein: [Fe]o=KCaY+[Ca]oY/(Y+1)+[Q]oY/(Y+KQ/KCa) (Eq.4)
The association rate constant was determined as the second order rate constant for calcein displacement from its complex with iron (1 μM:1 μM) upon addition of an oxyquinoline (5-20 μM) calculated from the slope of a linear plot of the initial rate of calcein release vs. the concentration of oxyquinoline added. All experiments were performed in triplicates or more. All values are presented as mean±S.E.M.

pIC50, pKi: −log10 of the molar value. Bounds are passed on as bounds.

With `Oc1cccc2cccnc12` [8-hydroxyquinoline, reference compound], the HIF1α protein stabilization result in the data set on HIF1α protein is “not”. In data set [1], the “fold reporter activation over background” value was 4-5 fold and the activation at 10 µM lay within 35 to 45%.
On to `CCOC(=O)c1ccc(O)c(O)c1` [DHB, Ethyl-3,4-dihydroxybenzoate], for which, in data set [2] (FIG. 1B), the “concentration at which the reporter is activated” value is above 50 µM. In data set [2], the pKi is 3.28.
With `COC(=O)CNC(=O)C(=O)OC` [DMOG, dimethyloxalylglycine], the pKi in data set [2] was 2.89.
In the case of `NNc1nc(-c2ccccc2)cc(-c2ccccc2)n1` [II, 2-hydrazinyl-4,6-diphenylpyrimidine], the “iron binding / chelation ability in solution, in words” value in data set [3] is “no iron chelation properties in solution”. Further, in data set [1], the “fold reporter activation over background” value was found to be 6.7 fold and the activation at 10 µM was 64%.
Consider `N[C@@H](Cc1ccc(O)c(O)c1)C(=O)O` [L-Dopa, reference compound], for which, in data set [2] (Homo sapiens, ODD-luc reporter), the pIC50 (as a rule, the IC50 on a negative log10 scale, so that one unit is a factor of ten) is 4.82. In data set [1], the “fold reporter activation over background” value was 3 fold and the activation at 10 µM was 21%.
